Assays:
DDR1 = target: T1, DDR1 (Homo sapiens, UniProt Q08345); test: LanthaScreen Europium Kinase Binding assay, DDR1; details: 5 nM DDR1, 20 nM Kinase Tracer 178, 1 h at rt; Ki from IC50 by Cheng-Prusoff; read-out: Ki DDR1
T1 construct: purchased Carna Biosciences
Protocol: (§1) DDR1 and DDR2 binding assays were performed using Life Technologies LanthaScreen™ Europium Kinase Binding assay. […] IC50 values were determined in GraphPad Prism 7.0 software, using 4 parameter model: log (inhibitor) vs. response. IC50 values were converted in Ki using the Cheng-Prusoff equation (Ki-IC50/(1+ [Tracer]/Kd).

DDR2 = target: T2, DDR2 (Homo sapiens, UniProt Q16832); test: LanthaScreen Europium Kinase Binding assay, DDR2; details: 5 nM DDR2, 10 nM Kinase Tracer 178, 1 h at rt; Ki from IC50 by Cheng-Prusoff; read-out: Ki DDR2
T2 construct: purchased Life Technologies
T2 sequence (Q16832 22-855): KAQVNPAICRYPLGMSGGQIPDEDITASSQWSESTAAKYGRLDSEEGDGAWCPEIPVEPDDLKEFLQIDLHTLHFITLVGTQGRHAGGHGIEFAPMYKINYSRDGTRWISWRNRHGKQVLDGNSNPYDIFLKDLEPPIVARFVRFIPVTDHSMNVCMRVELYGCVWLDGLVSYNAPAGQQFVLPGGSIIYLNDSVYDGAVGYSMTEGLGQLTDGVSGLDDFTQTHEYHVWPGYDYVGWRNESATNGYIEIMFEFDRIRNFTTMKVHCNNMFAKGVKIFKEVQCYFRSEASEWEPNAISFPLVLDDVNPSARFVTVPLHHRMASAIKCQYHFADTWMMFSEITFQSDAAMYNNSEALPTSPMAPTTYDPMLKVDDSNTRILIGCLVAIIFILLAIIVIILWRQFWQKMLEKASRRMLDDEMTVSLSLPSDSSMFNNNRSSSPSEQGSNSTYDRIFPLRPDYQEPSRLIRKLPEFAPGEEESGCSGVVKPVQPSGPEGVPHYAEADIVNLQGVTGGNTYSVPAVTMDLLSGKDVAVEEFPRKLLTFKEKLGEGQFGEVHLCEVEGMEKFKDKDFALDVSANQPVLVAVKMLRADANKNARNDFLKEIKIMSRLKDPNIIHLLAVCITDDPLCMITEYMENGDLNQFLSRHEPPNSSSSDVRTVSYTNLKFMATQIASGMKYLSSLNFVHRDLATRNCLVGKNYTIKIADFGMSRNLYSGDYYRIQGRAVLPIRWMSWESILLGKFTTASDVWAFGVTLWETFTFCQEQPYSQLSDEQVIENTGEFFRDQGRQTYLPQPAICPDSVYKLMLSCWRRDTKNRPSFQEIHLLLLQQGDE
Protocol: as §1

T1 sequence (Q08345 19-913): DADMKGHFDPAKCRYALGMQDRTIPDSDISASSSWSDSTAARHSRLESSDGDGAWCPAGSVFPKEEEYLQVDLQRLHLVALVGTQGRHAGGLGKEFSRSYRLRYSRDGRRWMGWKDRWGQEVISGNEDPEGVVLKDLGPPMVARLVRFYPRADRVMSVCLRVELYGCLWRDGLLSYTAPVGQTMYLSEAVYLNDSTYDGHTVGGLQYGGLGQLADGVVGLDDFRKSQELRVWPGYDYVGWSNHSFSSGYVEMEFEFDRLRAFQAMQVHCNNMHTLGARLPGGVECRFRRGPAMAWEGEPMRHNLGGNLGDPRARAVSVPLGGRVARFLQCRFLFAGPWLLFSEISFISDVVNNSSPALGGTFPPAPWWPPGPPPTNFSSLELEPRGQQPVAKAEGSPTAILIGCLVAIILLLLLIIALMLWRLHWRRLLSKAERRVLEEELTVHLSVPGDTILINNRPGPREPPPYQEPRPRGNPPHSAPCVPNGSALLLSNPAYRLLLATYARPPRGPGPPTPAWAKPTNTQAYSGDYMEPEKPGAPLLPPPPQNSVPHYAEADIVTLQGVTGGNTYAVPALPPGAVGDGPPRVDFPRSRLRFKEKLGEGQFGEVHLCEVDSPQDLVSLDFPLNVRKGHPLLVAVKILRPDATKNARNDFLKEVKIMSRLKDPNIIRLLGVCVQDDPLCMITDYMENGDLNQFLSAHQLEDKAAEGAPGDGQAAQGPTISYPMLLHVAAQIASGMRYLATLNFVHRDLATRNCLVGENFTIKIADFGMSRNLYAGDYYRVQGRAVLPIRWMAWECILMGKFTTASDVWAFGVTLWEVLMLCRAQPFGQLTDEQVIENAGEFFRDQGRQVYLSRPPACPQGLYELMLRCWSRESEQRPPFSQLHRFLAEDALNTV

Compound | Ki (DDR1) [nM] | Ki (DDR2) [nM]
Cn1ccn2ncc(C(=O)N3CC4(CC(OC(=O)Nc5cncc(C(F)(F)F)c5)C4)C3)c12 [Example 146, 2-(1-methyl-1H-imidazo[1,2-b]pyrazole-7-carbonyl)-2-azaspiro[3.3]heptan-6-yl(5-(trifluoromethyl)pyridin-3-yl)carbamate] | < 5 | 5 to 25
CCn1ccn2ncc(C(=O)N3CC4(CC(NC(=O)Nc5cccc(C(F)(F)F)c5)C4)C3)c12 [Example 70, 1-(2-(1-ethyl-1H-imidazo[1,2-b]pyrazole-7-carbonyl)-2-azaspiro[3.3]heptan-6-yl)-3-(3-(trifluoromethyl)phenyl)urea] | < 5 | < 5
Cn1ccn2ncc(C(=O)N3CC4(CC(NC(=O)Nc5cc(OC(F)(F)F)ccn5)C4)C3)c12 [Example 73, 1-(2-(1-methyl-1H-imidazo[1,2-b]pyrazole-7-carbonyl)-2-azaspiro[3.3]heptan-6-yl)-3-(4-(trifluoromethoxy)pyridin-2-yl)urea] | < 5 | 5 to 25
COc1ccc(OC(F)(F)F)cc1NC(=O)CC1CC2(C1)CN(C(=O)c1ccnc3ccsc13)C2 [Example 139, N-(2-methoxy-5-(trifluoromethoxy)phenyl)-2-(2-(thieno[3,2-b]pyridine-7-carbonyl)-2-azaspiro[3.3]heptan-6-yl)acetamide] | < 5 | < 5
CN(C(=O)Nc1cc(C(F)(F)F)ccn1)C1CC2(C1)CN(C(=O)c1cnn3ccn(CCO)c13)C2 [Example 209, 1-(2-(1-(2-hydroxyethyl)-1H-imidazo[1,2-b]pyrazole-7-carbonyl)-2-azaspiro[3.3]heptan-6-yl)-1-methyl-3-(4-(trifluoromethyl)pyridin-2-yl)urea] | < 5 | 5 to 25
CN(C(=O)Nc1cc(C(F)(F)F)cc(C(F)(F)F)c1)C1CC2(C1)CN(C(=O)c1cnn3ccn(C)c13)C2 [Example 257, 3-(3,5-bis(trifluoromethyl)phenyl)-1-methyl-1-(2-(1-methyl-1H-imidazo[1,2-b]pyrazole-7-carbonyl)-2-azaspiro[3.3]heptan-6-yl)urea] | < 5 | 5 to 25
COCCn1ccn2ncc(C(=O)N3CC4(CC(N(C)C(=O)Nc5cncc(C(F)(F)F)c5)C4)C3)c12 [Example 213, 1-(2-(1-(2-methoxyethyl)-1H-imidazo[1,2-b]pyrazole-7-carbonyl)-2-azaspiro[3.3]heptan-6-yl)-1-methyl-3-(5-(trifluoromethyl)pyridin-3-yl)urea] | 5 to 25 | 25 to 100
Cc1cc(NC(=O)N(C)C2CC3(C2)CN(C(=O)c2cnn4ccn(C)c24)C3)cc(OC(F)(F)F)c1 [Example 281, 1-methyl-1-(2-(1-methyl-1H-imidazo[1,2-b]pyrazole-7-carbonyl)-2-azaspiro[3.3]heptan-6-yl)-3-(3-methyl-5-(trifluoromethoxy)phenyl)urea] | < 5 | 5 to 25
COc1ncc(C(F)(F)F)cc1NC(=O)NC1CC2(C1)CN(C(=O)c1cnn3ccn(C)c13)C2 [Example 107, 1-(2-methoxy-5-(trifluoromethyl)pyridin-3-yl)-3-(2-(1-methyl-1H-imidazo[1,2-b]pyrazole-7-carbonyl)-2-azaspiro[3.3]heptan-6-yl)urea] | < 5 | 5 to 25
O=C(Nc1cc(CO)cc(C(F)(F)F)c1)NC1CC2(C1)CN(C(=O)c1ncnc3ccsc13)C2 [Example 110, 1-(3-(hydroxymethyl)-5-(trifluoromethyl)phenyl)-3-(2-(thieno[3,2-d]pyrimidine-4-carbonyl)-2-azaspiro[3.3]heptan-6-yl)urea] | < 5 | < 5
Cn1ccn2ncc(C(=O)N3CC4(CC(NC(=O)Nc5cc(C6CC6)ccn5)C4)C3)c12 [Example 155, 1-(4-cyclopropylpyridin-2-yl)-3-(2-(1-methyl-1H-imidazo[1,2-b]pyrazole-7-carbonyl)-2-azaspiro[3.3]heptan-6-yl)urea] | < 5 | 5 to 25
Cn1ccn2ncc(C(=O)N3CC4(CC(OC(=O)Nc5cc(C(F)(F)F)ncn5)C4)C3)c12 [Example 297, 2-(1-methyl-1H-imidazo[1,2-b]pyrazole-7-carbonyl)-2-azaspiro[3.3]heptan-6-yl(6-(trifluoromethyl)pyrimidin-4-yl)carbamate] | < 5 | 5 to 25
CN(C(=O)Nc1cc(C(F)(F)F)cnn1)C1CC2(C1)CN(C(=O)c1cnn3ccsc13)C2 [Example 228, 1-methyl-1-(2-(pyrazolo[5,1-b]thiazole-7-carbonyl)-2-azaspiro[3.3]heptan-6-yl)-3-(5-(trifluoromethyl)pyridazin-3-yl)urea] | < 5 | 25 to 100
Cn1ccn2ncc(C(=O)N3CC4(CC(CC(=O)Nc5cncc(C(F)(F)F)c5)C4)C3)c12 [Example 274, 2-(2-(1-methyl-1H-imidazo[1,2-b]pyrazole-7-carbonyl)-2-azaspiro[3.3]heptan-6-yl)-N-(5-(trifluoromethyl)pyridin-3-yl)acetamide] | < 5 | 5 to 25
Nc1cccn2ncc(C(=O)N3CC4(CC(NC(=O)Nc5cccc(C(F)(F)F)c5)C4)C3)c12 [Example 32, 1-(2-(4-aminopyrazolo[1,5-a]pyridine-3-carbonyl)-2-azaspiro [3.3]heptan-6-yl)-3-(3-(trifluoromethyl)phenyl)urea] | < 5 | 5 to 25
O=C(Nc1cc(CO)cc(C(F)(F)F)c1)NC1CC2(C1)CN(C(=O)c1cnn3ccsc13)C2 [Example 41, 1-(3-(hydroxymethyl)-5-(trifluoromethyl)phenyl)-3-(2-(pyrazolo[5,1-b]thiazole-7-carbonyl)-2-azaspiro[3.3]heptan-6-yl)urea] | < 5 | 5 to 25
[2H]C([2H])([2H])N(C(=O)Nc1cccc(C(F)(F)F)c1)C1CC2(C1)CN(C(=O)c1cnn3ccn(C)c13)C2 [Example 158, 1-(methyl-d3)-1-(2-(1-methyl-1H-imidazo[1,2-b]pyrazole-7-carbonyl)-2-azaspiro[3.3]heptan-6-yl)-3-(3-(trifluoromethyl)phenyl)urea] | < 5 | 5 to 25
Cc1ccc(OC(F)(F)F)cc1NC(=O)N(C)C1CC2(C1)CN(C(=O)c1ncnc3ccsc13)C2 [Example 280, 1-methyl-3-(2-methyl-5-(trifluoromethoxy)phenyl)-1-(2-(thieno[3,2-d]pyrimidine-4-carbonyl)-2-azaspiro[3.3]heptan-6-yl)urea] | < 5 | < 5
COc1ccc(OC(F)F)cc1NC(=O)NC1CC2(C1)CN(C(=O)c1cnn3ccn(C)c13)C2 [Example 91, 1-(5-(difluoromethoxy)-2-methoxyphenyl)-3-(2-(1-methyl-1H-imidazo[1,2-b]pyrazole-7-carbonyl)-2-azaspiro[3.3]heptan-6-yl)urea] | < 5 | 5 to 25
CCN(C(=O)Nc1cccc(C(F)(F)F)c1)C1CC2(C1)CN(C(=O)c1cnn3ccn(C)c13)C2 [Example 85, 1-ethyl-1-(2-(1-methyl-1H-imidazo[1,2-b]pyrazole-7-carbonyl)-2-azaspiro[3.3]heptan-6-yl)-3-(3-(trifluoromethyl)phenyl)urea] | < 5 | 5 to 25
Cn1ccn2ncc(C(=O)N3CC4(CC(NC(=O)Nc5ccc(Cl)c(C(F)(F)F)c5)C4)C3)c12 [Example 108, 1-(4-chloro-3-(trifluoromethyl)phenyl)-3-(2-(1-methyl-1H-imidazo[1,2-b]pyrazole-7-carbonyl)-2-azaspiro[3.3]heptan-6-yl)urea] | < 5 | 5 to 25
CCc1ccc(C(F)(F)F)cc1NC(=O)NC1CC2(C1)CN(C(=O)c1cnn3ccn(C)c13)C2 [Example 282, 1-(2-ethyl-5-(trifluoromethyl)phenyl)-3-(2-(1-methyl-1H-imidazo[1,2-b]pyrazole-7-carbonyl)-2-azaspiro[3.3]heptan-6-yl)urea] | < 5 | < 5
COc1ccc(OC(F)(F)F)cc1NC(=O)NC1CC2(C1)CN(C(=O)c1cnn3ccsc13)C2 [Example 23, 1-(2-methoxy-5-(trifluoromethoxy)phenyl)-3-(2-(pyrazolo[5,1-b]thiazole-7-carbonyl)-2-azaspiro[3.3]heptan-6-yl)urea] | < 5 | < 5
Cc1ncc(-c2ccc3c(C(=O)N4CC5(CC(N(C)C(=O)Nc6cncc(C(F)(F)F)c6)C5)C4)cnn3c2)o1 [Example 229, 1-methyl-1-(2-(6-(2-methyloxazol-5-yl)pyrazolo[1,5-a]pyridine-3-carbonyl)-2-azaspiro[3.3]heptan-6-yl)-3-(5-(trifluoromethyl)pyridin-3-yl)urea] | < 5 | 5 to 25
